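The compound was tested at five concentrations on cells cultured in 96-well plates, with a 48-hour exposure period. At the GI50, growth is halved.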 Calls of active or inactive are those of the source. Rule as the data show it: active = GI50 up to about 1.1 µM and inactive = higher.
Key:
Experiment in all cases: NCI tumour cell line growth inhibition, 48 h
[1] = system: MDA-MB-231
[2] = system: COLO 205
[3] = system: DU-145
[4] = system: SNB-19
[5] = system: SF-539
[6] = system: SK-MEL-5
[7] = system: SK-MEL-28
[8] = system: K562
[9] = system: Hs-578T
[10] = system: HCT-116
[11] = system: T47D
[12] = system: HCT-15
[13] = system: NCI-H460
[14] = system: M14
[15] = system: NCI/ADR-RES
[16] = system: Malme-3M
[17] = system: 786-0
[18] = system: OVCAR-5
[19] = system: RPMI-8226
[20] = system: NCI-H522

CC(C)C(NC(=O)Oc1ccccc1)C(=O)NC1c2c(Br)sc(Br)c2C(=O)C1O (stereo not given)
GI50 [1]: 5.11 µM (inactive) | GI50 [2]: 7.29 µM (inactive) | GI50 [3]: 9.4 µM (inactive) | GI50 [4]: 4.93 µM (inactive) | GI50 [5]: 14.2 µM (inactive) | GI50 [6]: 4.53 µM (inactive) | GI50 [7]: 4.93 µM (inactive) | GI50 [8]: 7.8 µM (inactive) | GI50 [9]: 8.95 µM (inactive) | GI50 [10]: 3.97 µM (inactive) | GI50 [11]: 6.34 µM (inactive) | GI50 [12]: 4.25 µM | GI50 [13]: 5.02 µM (inactive) | GI50 [14]: 4.58 µM (inactive) | GI50 [15]: 5.87 µM (inactive) | GI50 [16]: 6.38 µM (inactive) | GI50 [17]: 8.79 µM (inactive) | GI50 [18]: 4.91 µM (inactive)

CC(C)C1CC=NN1C(=O)OC(C)(C)C (stereo not given)
GI50 [2]: > 100 µM (inactive) | GI50 [3]: > 100 µM (inactive) | GI50 [5]: > 100 µM (inactive) | GI50 [6]: > 100 µM (inactive) | GI50 [19]: > 100 µM (inactive) | GI50 [8]: > 100 µM (inactive) | GI50 [9]: > 100 µM (inactive) | GI50 [10]: > 100 µM (inactive) | GI50 [11]: > 100 µM (inactive) | GI50 [20]: > 100 µM (inactive) | GI50 [12]: > 100 µM | GI50 [13]: > 100 µM (inactive) | GI50 [14]: > 100 µM (inactive) | GI50 [15]: > 100 µM (inactive) | GI50 [17]: > 100 µM (inactive) | GI50 [18]: > 100 µM (inactive)

COc1cc(/C=C2/SC(c3ccccc3)N(c3cccc(NC(C)=O)c3)C2=O)cc(OC)c1OC (stereo not given)
GI50 [2]: 41.9 µM (inactive) | GI50 [3]: 92.3 µM (inactive) | GI50 [4]: 31 µM (inactive) | GI50 [5]: 49.3 µM (inactive) | GI50 [6]: 24.8 µM (inactive) | GI50 [7]: 34 µM (inactive) | GI50 [19]: 30.3 µM (inactive) | GI50 [8]: 35.6 µM (inactive) | GI50 [9]: 23.9 µM (inactive) | GI50 [10]: 30.2 µM (inactive) | GI50 [11]: 45.7 µM (inactive) | GI50 [20]: 18.2 µM (inactive) | GI50 [12]: 46.9 µM | GI50 [13]: 71.9 µM (inactive) | GI50 [14]: 27.7 µM (inactive) | GI50 [15]: 40.7 µM (inactive) | GI50 [16]: 28.8 µM (inactive) | GI50 [17]: 81.8 µM (inactive) | GI50 [18]: > 100 µM (inactive)

CN1c2ccccc2C(=O)NC12CCNCC2
GI50 [2]: > 100 µM (inactive) | GI50 [3]: > 100 µM (inactive) | GI50 [4]: > 100 µM (inactive) | GI50 [5]: > 100 µM (inactive) | GI50 [6]: > 100 µM (inactive) | GI50 [7]: > 100 µM (inactive) | GI50 [19]: > 100 µM (inactive) | GI50 [8]: > 100 µM (inactive) | GI50 [9]: 0.082 µM (active) | GI50 [10]: > 100 µM (inactive) | GI50 [11]: > 100 µM (inactive) | GI50 [13]: > 100 µM (inactive) | GI50 [14]: > 100 µM (inactive) | GI50 [15]: > 100 µM (inactive) | GI50 [16]: > 100 µM (inactive) | GI50 [17]: > 100 µM (inactive) | GI50 [18]: > 100 µM (inactive)
